Organism: Rattus norvegicus
Experiment: DrugMatrix - Regimen: Daily Repeat
Format: toxicity, organism-based, Sprague-Dawley
Parameters: regimen Daily Repeat, gender Male, age 6-8 weeks
Conditions: in vivo, po, route oral GAVAGE, vehicle .5 % CMC; for ABSOLUTE BASOPHIL / ABSOLUTE EOSINOPHIL / ABSOLUTE LYMPHOCYTE / ABSOLUTE MONOCYTE / ABSOLUTE SEGMENTED NEUTROPHIL / BASOPHIL / EOSINOPHIL / ERYTHROCYTE COUNT / HEMATOCRIT / HEMOGLOBIN / LEUKOCYTE COUNT / LYMPHOCYTE / MEAN CORPUSCULAR HEMOGLOBIN / MEAN CORPUSCULAR HEMOGLOBIN CONCENTRATION / MEAN CORPUSCULAR VOLUME / MONOCYTE / NEUTROPHIL / NUCLEATED RED BLOOD CELLS / PLATELET COUNT: tissue Blood; for ALANINE AMINOTRANSFERASE / ALBUMIN / ALKALINE PHOSPHATASE / ASPARTATE AMINOTRANSFERASE / BLOOD UREA NITROGEN / CARBON DIOXIDE / CHLORIDE / CHOLESTEROL / CREATINE PHOSPHOKINASE / CREATININE / GLUCOSE / LACTATE DEHYDROGENASE / LIPASE / PHOSPHORUS / POTASSIUM / SODIUM / TOTAL BILIRUBIN / TOTAL PROTEIN / URIC ACID: tissue Plasma
[1] = 200 mg/kg, 72 h, dose level Low, time 3 day
[2] = 200 mg/kg, 120 h, dose level Low, time 5 day
[3] = 1200 mg/kg, 72 h, dose level High, time 3 day
[4] = 1200 mg/kg, 120 h, dose level High, time 5 day

COc1cc(C(=O)NC2CCCNC2)cc(OC)c1OC (configuration not stated) [TROXIPIDE]
ABSOLUTE BASOPHIL [1]: 0 CELLS/uL | ABSOLUTE EOSINOPHIL [1]: 136.33 CELLS/uL | ABSOLUTE LYMPHOCYTE [1]: 11684 CELLS/uL | ABSOLUTE MONOCYTE [1]: 203.67 CELLS/uL | ABSOLUTE SEGMENTED NEUTROPHIL [1]: 809.33 CELLS/uL | BASOPHIL [1]: 0% | EOSINOPHIL [1]: 1% | ERYTHROCYTE COUNT [1]: 5.48 x10E6/uL | HEMATOCRIT [1]: 34.2% | HEMOGLOBIN [1]: 12.97 G/DL | LEUKOCYTE COUNT [1]: 12.83 x10E3/uL | LYMPHOCYTE [1]: 91% | MEAN CORPUSCULAR HEMOGLOBIN [1]: 23.67 pg | MEAN CORPUSCULAR HEMOGLOBIN CONCENTRATION [1]: 37.9 G/DL | MEAN CORPUSCULAR VOLUME [1]: 62.43 fL | MONOCYTE [1]: 1.67% | NEUTROPHIL [1]: 6.33% | NUCLEATED RED BLOOD CELLS [1]: 0.33 /100WBC | PLATELET COUNT [1]: 1247.33 x10E3/uL | ALANINE AMINOTRANSFERASE [1]: 38.67 u/L | ALBUMIN [1]: 4.37 G/DL | ALKALINE PHOSPHATASE [1]: 413.67 u/L | ASPARTATE AMINOTRANSFERASE [1]: 80 u/L | BLOOD UREA NITROGEN [1]: 14 mg/dL | CARBON DIOXIDE [1]: 26.33 mmol/L | CHLORIDE [1]: 106 MEQ/L | CHOLESTEROL [1]: 67 mg/dL | CREATINE PHOSPHOKINASE [1]: 457.67 u/L | CREATININE [1]: 0.16 mg/dL | GLUCOSE [1]: 165 mg/dL | LACTATE DEHYDROGENASE [1]: 90.67 u/L | LIPASE [1]: 9 u/L | PHOSPHORUS [1]: 13.6 mg/dL | POTASSIUM [1]: 6.02 MEQ/L | SODIUM [1]: 146.67 MEQ/L | TOTAL BILIRUBIN [1]: 0.23 mg/dL | TOTAL PROTEIN [1]: 5.87 G/DL | URIC ACID [1]: 1.57 mg/dL | ABSOLUTE BASOPHIL [2]: 0 CELLS/uL | ABSOLUTE EOSINOPHIL [2]: 142.33 CELLS/uL | ABSOLUTE LYMPHOCYTE [2]: 13091.33 CELLS/uL | ABSOLUTE MONOCYTE [2]: 94.33 CELLS/uL | ABSOLUTE SEGMENTED NEUTROPHIL [2]: 905.33 CELLS/uL | BASOPHIL [2]: 0% | EOSINOPHIL [2]: 1% | ERYTHROCYTE COUNT [2]: 5.5 x10E6/uL | HEMATOCRIT [2]: 35.17% | HEMOGLOBIN [2]: 13.37 G/DL | LEUKOCYTE COUNT [2]: 14.23 x10E3/uL | LYMPHOCYTE [2]: 92% | MEAN CORPUSCULAR HEMOGLOBIN [2]: 24.33 pg | MEAN CORPUSCULAR HEMOGLOBIN CONCENTRATION [2]: 38.03 G/DL | MEAN CORPUSCULAR VOLUME [2]: 63.97 fL | MONOCYTE [2]: 0.67% | NEUTROPHIL [2]: 6.33% | NUCLEATED RED BLOOD CELLS [2]: 0 /100WBC | PLATELET COUNT [2]: 1300.67 x10E3/uL | ALANINE AMINOTRANSFERASE [2]: 40.33 u/L | ALBUMIN [2]: 4.33 G/DL | ALKALINE PHOSPHATASE [2]: 383 u/L | ASPARTATE AMINOTRANSFERASE [2]: 84.33 u/L | BLOOD UREA NITROGEN [2]: 16.67 mg/dL | CARBON DIOXIDE [2]: 24.67 mmol/L | CHLORIDE [2]: 109 MEQ/L | CHOLESTEROL [2]: 69 mg/dL | CREATINE PHOSPHOKINASE [2]: 241.67 u/L | CREATININE [2]: 0.18 mg/dL | GLUCOSE [2]: 177.67 mg/dL | LACTATE DEHYDROGENASE [2]: 230 u/L | LIPASE [2]: 9 u/L | PHOSPHORUS [2]: 14 mg/dL | POTASSIUM [2]: 5.49 MEQ/L | SODIUM [2]: 147.33 MEQ/L | TOTAL BILIRUBIN [2]: 0.23 mg/dL | TOTAL PROTEIN [2]: 6.57 G/DL | URIC ACID [2]: 1.8 mg/dL | ABSOLUTE BASOPHIL [3]: 0 CELLS/uL | ABSOLUTE EOSINOPHIL [3]: 0 CELLS/uL | ABSOLUTE LYMPHOCYTE [3]: 8315.67 CELLS/uL | ABSOLUTE MONOCYTE [3]: 238.67 CELLS/uL | ABSOLUTE SEGMENTED NEUTROPHIL [3]: 579 CELLS/uL | BASOPHIL [3]: 0% | EOSINOPHIL [3]: 0% | ERYTHROCYTE COUNT [3]: 5.66 x10E6/uL | HEMATOCRIT [3]: 34.93% | HEMOGLOBIN [3]: 13.13 G/DL | LEUKOCYTE COUNT [3]: 9.13 x10E3/uL | LYMPHOCYTE [3]: 91% | MEAN CORPUSCULAR HEMOGLOBIN [3]: 23.23 pg | MEAN CORPUSCULAR HEMOGLOBIN CONCENTRATION [3]: 37.6 G/DL | MEAN CORPUSCULAR VOLUME [3]: 61.73 fL | MONOCYTE [3]: 2.33% | NEUTROPHIL [3]: 6.67% | NUCLEATED RED BLOOD CELLS [3]: 0 /100WBC | PLATELET COUNT [3]: 1475 x10E3/uL | ALANINE AMINOTRANSFERASE [3]: 56 u/L | ALBUMIN [3]: 4.5 G/DL | ALKALINE PHOSPHATASE [3]: 344 u/L | ASPARTATE AMINOTRANSFERASE [3]: 88 u/L | BLOOD UREA NITROGEN [3]: 12.67 mg/dL | CARBON DIOXIDE [3]: 27.67 mmol/L | CHLORIDE [3]: 106.33 MEQ/L | CHOLESTEROL [3]: 80.33 mg/dL | CREATINE PHOSPHOKINASE [3]: 209.33 u/L | CREATININE [3]: 0.21 mg/dL | GLUCOSE [3]: 138.33 mg/dL | LACTATE DEHYDROGENASE [3]: 178 u/L | LIPASE [3]: 8.67 u/L | PHOSPHORUS [3]: 11.63 mg/dL | POTASSIUM [3]: 6.42 MEQ/L | SODIUM [3]: 150.7 MEQ/L | TOTAL BILIRUBIN [3]: 0.2 mg/dL | TOTAL PROTEIN [3]: 6.4 G/DL | URIC ACID [3]: 1.2 mg/dL | ABSOLUTE BASOPHIL [4]: 0 CELLS/uL | ABSOLUTE EOSINOPHIL [4]: 55.33 CELLS/uL | ABSOLUTE LYMPHOCYTE [4]: 13790.67 CELLS/uL | ABSOLUTE MONOCYTE [4]: 0 CELLS/uL | ABSOLUTE SEGMENTED NEUTROPHIL [4]: 1154 CELLS/uL | BASOPHIL [4]: 0% | EOSINOPHIL [4]: 0.33% | ERYTHROCYTE COUNT [4]: 5.99 x10E6/uL | HEMATOCRIT [4]: 37.5% | HEMOGLOBIN [4]: 13.97 G/DL | LEUKOCYTE COUNT [4]: 15 x10E3/uL | LYMPHOCYTE [4]: 92% | MEAN CORPUSCULAR HEMOGLOBIN [4]: 23.33 pg | MEAN CORPUSCULAR HEMOGLOBIN CONCENTRATION [4]: 37.23 G/DL | MEAN CORPUSCULAR VOLUME [4]: 62.67 fL | MONOCYTE [4]: 0% | NEUTROPHIL [4]: 7.67% | NUCLEATED RED BLOOD CELLS [4]: 0 /100WBC | PLATELET COUNT [4]: 1467.33 x10E3/uL | ALANINE AMINOTRANSFERASE [4]: 59.33 u/L | ALBUMIN [4]: 4.1 G/DL | ALKALINE PHOSPHATASE [4]: 355.33 u/L | ASPARTATE AMINOTRANSFERASE [4]: 81.33 u/L | BLOOD UREA NITROGEN [4]: 15.33 mg/dL | CARBON DIOXIDE [4]: 24.33 mmol/L | CHLORIDE [4]: 106.33 MEQ/L | CHOLESTEROL [4]: 65.33 mg/dL | CREATINE PHOSPHOKINASE [4]: 150 u/L | CREATININE [4]: 0.2 mg/dL | GLUCOSE [4]: 176 mg/dL | LACTATE DEHYDROGENASE [4]: 88.67 u/L | LIPASE [4]: 8.33 u/L | PHOSPHORUS [4]: 13.83 mg/dL | POTASSIUM [4]: 6.2 MEQ/L | SODIUM [4]: 146.57 MEQ/L | TOTAL BILIRUBIN [4]: 0.17 mg/dL | TOTAL PROTEIN [4]: 6.17 G/DL | URIC ACID [4]: 2.43 mg/dL

From ChEMBL document CHEMBL3885881, “DrugMatrix”
